Several values for one entry are separate records, joined by “and”; a condition that tells them apart may be missing. Equal entries are not always repeated.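 Cells were grown in 96-well plates and exposed to each compound for 48 hours at five concentrations; endpoints were interpolated linearly between bracketing concentrations, or set to the highest concentration if not reached. Here, GI50 denotes the concentration required for 50% inhibition of growth. TGI: total growth inhibition.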
What was measured:
Assay in all cases: NCI-60 cell line screen, 48 h
MCF7 breast = test system: MCF7 breast
T-47D breast = test system: T-47D breast
UACC-62 melanoma = test system: UACC-62 melanoma
A549 NSCLC = test system: A549 NSCLC
UO-31 renal = test system: UO-31 renal
A498 renal = test system: A498 renal
SK-MEL-5 melanoma = test system: SK-MEL-5 melanoma
PC-3 prostate = test system: PC-3 prostate
HCT-116 colon = test system: HCT-116 colon
RXF 393 renal = test system: RXF 393 renal

SMILES	TGI (MCF7 breast)	TGI (T-47D breast)	TGI (UACC-62 melanoma)	TGI (A549 NSCLC)	TGI (UO-31 renal)	TGI (A498 renal)	TGI (SK-MEL-5 melanoma)	TGI (PC-3 prostate)	TGI (HCT-116 colon)	TGI (RXF 393 renal)	GI50 (MCF7 breast)	GI50 (T-47D breast)	GI50 (UACC-62 melanoma)	GI50 (A549 NSCLC)	GI50 (UO-31 renal)	GI50 (A498 renal)	GI50 (SK-MEL-5 melanoma)	GI50 (PC-3 prostate)	GI50 (HCT-116 colon)	GI50 (RXF 393 renal)
C#CC1=CC(=O)C(OC)=CC1=O	35.8 µM	87.5 µM	29.2 µM	> 100 µM	14.3 µM	> 100 µM	40 µM	> 100 µM	40 µM	30.1 µM	–	–	–	–	–	–	–	–	–	–
COc1ccc(-c2nc(-c3nc4ccc(C)cc4[nH]3)cc3c2[nH]c2ccccc23)cc1	56.3 µM	19.2 µM	23.1 µM	> 100 µM	> 100 µM	> 100 µM	12.6 µM	> 100 µM	40.6 µM	> 100 µM	3.06 µM	3.67 µM	3.34 µM	3.43 µM	2.99 µM	2.36 µM	3.12 µM	2.74 µM	3.55 µM	3.82 µM
Cc1c(C#N)cccc1[C@@H](C)Nc1nnc(C)c2cnc(N3CCOCC3)cc12	72.4 µM	81.3 µM	> 100 µM	> 100 µM	> 100 µM	> 100 µM	21.9 µM	> 100 µM	> 100 µM	> 100 µM	21.4 µM	18.5 µM	30.5 µM	36.2 µM	15.1 µM	2.72 µM	10.1 µM	27.8 µM	32.7 µM	11.3 µM
COc1cccc2cc(N(C)c3nc(C)nc4c3CCC4)ccc12	14.6 µM	41.8 µM	18.1 µM	14.2 µM	18.1 µM	14.7 µM	0.0161 µM	16.4 µM	10.4 µM	23.7 µM	< 0.01 µM	5.38 µM	–	< 0.01 µM	< 0.0104 µM	< 0.01 µM	< 0.01 µM	< 0.01 µM	< 0.01 µM	< 0.01 µM
O=C(NCC(F)(F)F)Nc1cccc(-c2cnc3cc(-c4ccc(F)cc4)ccn23)c1	18.5 µM	62 µM	> 56.2 µM	> 100 µM	5.53 µM	2.47 µM	14 µM	> 100 µM	14.7 µM	6.36 µM	0.586 µM	2.69 µM	2.44 µM	0.947 µM	0.575 µM	0.29 µM	0.549 µM	2.22 µM	0.539 µM	1.13 µM
O=C(O)/C(Cc1ccnc2ccccc12)=N\O	> 100 µM	> 100 µM	> 100 µM	> 100 µM	> 100 µM	> 100 µM	> 100 µM	> 100 µM	> 100 µM	> 100 µM	–	–	–	–	–	–	–	–	–	–
Cc1cc(C)c(C#N)c(Sc2nc(C)c([N+](=O)[O-])c(C)c2C#N)n1	11.6 µM	5.59 µM	11.5 µM	–	4.01 µM	27 µM	16.4 µM	61.2 µM	4.18 µM	5.55 µM	3.11 µM	2.29 µM	2.96 µM	–	1.81 µM	13.1 µM	4.02 µM	4.67 µM	1.94 µM	2.16 µM
COc1ccccc1S(=O)(=O)Nc1ccc2c3c(cc(CCC(=O)NCCCCNc4cccc5c4C(=O)N(C4CCC(=O)NC4=O)C5=O)cc13)C(=O)N2C (centres undefined)	> 100 µM	–	> 100 µM	> 100 µM	> 100 µM	6.08 µM	3.32 µM	> 100 µM	> 100 µM	4.5 µM	0.264 µM	0.0343 µM	13.4 µM	5.73 µM	2.4 µM	0.659 µM	0.982 µM	0.204 µM	3.06 µM	0.862 µM
COC(=O)Nc1nc2ccccc2[nH]1	> 100 µM	> 100 µM	> 100 µM	> 100 µM	> 100 µM	> 100 µM	> 100 µM	> 100 µM	> 100 µM	> 100 µM	–	–	–	–	–	–	–	–	–	–
O=C1/C(=C/c2ccc(F)cc2)CN(C(=O)CCN2CCC(=NO)CC2)C/C1=C\c1ccc(F)cc1	4.59 µM	9.55 µM	2.41 µM	11.2 µM	2.84 µM	2.63 µM	3.26 µM	2.97 µM	0.861 µM	3.18 µM	0.768 µM	2.56 µM	0.84 µM	4.09 µM	1.37 µM	1.31 µM	1.73 µM	0.855 µM	0.413 µM	1.64 µM
CSc1nc2nc3c(nc2c(=O)n1C)C(=O)c1ccccc1C3=O	0.384 µM	0.843 µM	0.183 µM	0.184 µM	0.768 µM	0.768 µM	0.0322 µM	1.46 µM	1.13 µM	0.819 µM	0.162 µM	0.226 µM	0.0467 µM	0.0387 µM	0.236 µM	0.186 µM	0.0169 µM	0.269 µM	0.149 µM	0.253 µM
CCN(CC)CCCC(C)Nc1cc(-c2cccc(OC(F)(F)F)c2)nc2ccc(N3CCCC3)cc12 (centres undefined)	22.5 µM	> 100 µM	20.9 µM	> 100 µM	44.3 µM	3.03 µM	0.589 µM	> 49.5 µM	13.7 µM	89.1 µM	0.0353 µM	0.0542 µM	0.0484 µM	0.0677 µM	0.0699 µM	0.0301 µM	0.126 µM	0.28 µM	0.0371 µM	0.0357 µM
Cc1cc(-c2c(F)cc3c4nn([C@H]5CC[C@@H](N(C)C)CC5)c(=O)c-4cn(C4CC4)c3c2F)cc(C)n1	> 100 µM	2.76 µM	0.255 µM and 0.754 µM	–	0.566 µM and 3.29 µM	0.0558 µM and 0.471 µM	0.982 µM	> 100 µM	0.356 µM and 1.27 µM	1.39 µM	–	–	0.0468 µM	–	0.275 µM	0.141 µM	–	–	0.0391 µM	–
NC(=O)c1ccc(Oc2nccc(-c3c(-c4ccc(F)cc4)ncn3C3CCNCC3)n2)cc1	> 25 µM	> 25 µM	> 25 µM	> 25 µM	> 25 µM	> 25 µM	> 25 µM	> 25 µM	> 25 µM	> 25 µM	> 25 µM	> 25 µM	> 25 µM	> 25 µM	> 25 µM	> 18.2 µM	> 25 µM	> 25 µM	> 25 µM	> 25 µM

From PubChem BioAssay (NCI)
